# Reference: patent US20260200928A1, “THERAPEUTIC COMPOUNDS” (Sanofi, priority 2022, published 2026)
# Target: T1, human IL-17A (Homo sapiens, UniProt Q16552)
# T1 construct: purchased R&D Systems 7955-IL/CF
# T1 sequence (Q16552 24-155): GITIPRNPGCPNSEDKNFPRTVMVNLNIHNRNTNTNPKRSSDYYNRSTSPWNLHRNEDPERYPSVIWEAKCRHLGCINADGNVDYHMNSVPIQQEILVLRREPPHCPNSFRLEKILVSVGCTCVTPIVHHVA
# Assay: IL-17A AlphaLISA competition assay (block of IL-17A binding to its receptor IL-17RA)
# Details: mean IC50 (n≥2), block of IL-17A binding to IL-17RA
# Procedure, shortened: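 Human recombinant IL-17A (7.5 nM stock) pre-incubated 30 min at RT with compound, then IL-17RA/Fc (5 nM stock) added for 90 min; AlphaLISA read with anti-Fc acceptor beads, biotinylated anti-IL-17A antibody (5 nM) and streptavidin donor beads (3 h, dark). IC50 from 4-parameter logistic fit, normalised to DMSO and 4 μM reference inhibitor; n≥2.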
row,Compound,IC50 [nM]
1,"CC(C)n1nccc1C(=O)N[C@@H](C(=O)Nc1cc(CN2C[C@H](C(F)(F)F)NC2=O)ccn1)[C@H]1CC[C@H](C)CC1 [Example 4, 1-isopropyl-N—((S)-1-((1r,4S)-4-methylcyclohexyl)-2-oxo-2-((4-(((S)-2-oxo-4-(trifluoromethyl)imidazolidin-1-yl)methyl)pyridin-2-yl)amino)ethyl)-1H-pyrazole-5-carboxamide]",35
2,"CCc1nonc1C(=O)N[C@H](C(=O)Nc1cc([C@@H](COC)N2C[C@@H](C(F)(F)F)NC2=O)ccn1)C1CCC(Cl)CC1 (stereo partly drawn) [Example 316, N-((1S)-1-(4-chlorocyclohexyl)-2-((4-((S)-2-methoxy-1-((S)-2-oxo-4-(trifluoromethyl)imidazolidin-1-yl)ethyl)pyridin-2-yl)amino)-2-oxoethyl)-4-ethyl-1,2,5-oxadiazole-3-carboxamide]",46
3,"CCc1nocc1C(=O)N[C@H](C(=O)Nc1cc(O[C@H]2C[C@@H](C(F)(F)F)NC2=O)ccn1)[C@H]1CC[C@H](C)CC1 [Example 321, 3-ethyl-N—((S)-1-((1r,4S)-4-methylcyclohexyl)-2-oxo-2-((4-(((3S,5S)-2-oxo-5-(trifluoromethyl)pyrrolidin-3-yl)oxy)pyridin-2-yl)amino)ethyl)isoxazole-4-carboxamide]",689
4,"COCC(NC(=O)CCC(F)(F)F)c1ccnc(NC(=O)[C@@H](NC(=O)c2ccnn2CC2CC2)C2CCC(F)(F)CC2)c1 (single isomer, unassigned) [Example 147]",828
5,"CC(C)n1nccc1C(=O)N[C@H](C(=O)Nc1cc(C[C@H]2C[C@@H](C(F)(F)F)NC2=O)ccn1)C1CCC(F)(F)CC1 [Example 225, N-((S)-1-(4,4-difluorocyclohexyl)-2-oxo-2-((4-(((3S,5S)-2-oxo-5-(trifluoromethyl)pyrrolidin-3-yl)methyl)pyridin-2-yl)amino)ethyl)-1-isopropyl-1H-pyrazole-5-carboxamide]",105
6,"CCc1cnoc1C(=O)N[C@H](C(=O)Nc1cc(C(CC(F)(F)F)NC(=O)CCC(F)(F)F)ccn1)C1CCC(F)(F)CC1 (stereo partly drawn) [Example 157, N-((1S)-1-(4,4-difluorocyclohexyl)-2-oxo-2-((4-(3,3,3-trifluoro-1-(4,4,4-trifluorobutanamido)propyl)pyridin-2-yl)amino)ethyl)-4-ethylisoxazole-5-carboxamide]",117
7,"O=C(N[C@H](C(=O)Nc1cc(CN2C[C@@H](C(F)(F)F)NC2=O)ccn1)C1CCC(F)(F)CC1)OCc1ccccc1 (stereo in doubt) [Example 10, Benzyl ((S)-1-(4,4-difluorocyclohexyl)-2-oxo-2-((4-(((S)-2-oxo-4-(trifluoromethyl)imidazolidin-1-yl)methyl)pyridin-2-yl)amino)ethyl)carbamate]",273
8,1-isopropyl-N-((1S)-2-((4-((S)-2-methoxy-1-((S)-2-oxo-4-(trifluoromethyl)imidazolidin-1-yl)ethyl)pyridin-2-yl)amino)-2-oxo-1-(4-(trifluoromethyl)cyclohexyl)ethyl)-1H-pyrazole-5-carboxamide [Example 303],46
9,"CC(C)(C)OC(=O)N[C@H](C(=O)Nc1cc(COC(=O)NCC(F)(F)F)ccn1)[C@H]1CC[C@H](C)CC1 [Example 26, Tert-butyl ((S)-1-((1r,4S)-4-methylcyclohexyl)-2-oxo-2-((4-((((2,2,2-trifluoroethyl)carbamoyl)oxy)methyl)pyridin-2-yl)amino)ethyl)carbamate]",10400
10,"COCC(NC(=O)CCC(F)(F)F)c1ccnc(NC(=O)[C@@H](NC(=O)c2ccnn2C2CC2)C2CCC(F)(F)CC2)c1 (single isomer, unassigned) [Example 146]",4450
11,"CCn1nccc1C(=O)NC(C(=O)Nc1cc(Cc2cccc(=O)n2C)ccn1)C1CCC(F)(F)CC1 (centres unmarked) [Example 36, N-(1-(4,4-difluorocyclohexyl)-2-((4-((1-methyl-6-oxo-1,6-dihydro-pyridin-2-yl)methyl)pyridin-2-yl)amino)-2-oxoethyl)-1-ethyl-1H-pyrazole-5-carboxamide]",12000
12,"COCC(c1ccnc(NC(=O)[C@@H](NC(=O)c2nccn2C(C)C)[C@H]2CC[C@H](C)CC2)c1)N1C[C@@H](C(F)(F)F)NC1=O (single isomer, unassigned) [Example 115]",77
13,"[2H]C(c1ccnc(NC(=O)[C@@H](NC(=O)c2nonc2C2CC2)[C@H]2CC[C@H](C)CC2)c1)N1C[C@@H](C(F)(F)F)NC1=O (stereo partly drawn) [Example 231, 4-Cyclopropyl-N-((1S)-1-((1r,4S)-4-methylcyclohexyl)-2-oxo-2-((4-(((S)-2-oxo-4-(trifluoromethyl)imidazolidin-1-yl)methyl-d)pyridin-2-yl)amino)ethyl)-1,2,5-oxadiazole-3-carboxamide]",38
14,"COCC(NC(=O)CCC(F)(F)F)c1ccnc(NC(=O)[C@@H](NC(=O)c2nccn2C)C2CCC(F)(F)CC2)c1 (single isomer, unassigned) [Example 140]",7370
15,"COC[C@H](c1ccnc(NC(=O)[C@H](COC(C)(C)C(F)(F)F)NC(=O)c2nonc2C)c1)N1C[C@@H](C(F)(F)F)NC1=O [Example 268, N-((S)-1-((4-((S)-2-methoxy-1-((S)-2-oxo-4-(trifluoromethyl)imidazolidin-1-yl)ethyl)pyridin-2-yl)amino)-1-oxo-3-((1,1,1-trifluoro-2-methylpropan-2-yl)oxy)propan-2-yl)-4-methyl-1,2,5-oxadiazole-3-carboxamide]",31
16,"Cc1nonc1C(=O)N[C@H](C(=O)Nc1cc([C@@H](C)N2C[C@@H](C(F)(F)F)NC2=O)ccn1)[C@H]1CC[C@H](C)CC1 [Example 237, 4-methyl-N—((S)-1-((1r,4S)-4-methylcyclohexyl)-2-oxo-2-((4-((R)-1-((S)-2-oxo-4-(trifluoromethyl)imidazolidin-1-yl)ethyl)pyridin-2-yl)amino)ethyl)-1,2,5-oxadiazole-3-carboxamide]",22
17,"Cn1nccc1C(=O)N[C@H](C(=O)Nc1cc(CN2C[C@@H](C(F)(F)F)NC2=O)ccn1)[C@H]1CC[C@H](C)CC1 [Example 3, 1-Methyl-N—((S)-1-((1r,4S)-4-methylcyclohexyl)-2-oxo-2-((4-(((S)-2-oxo-4-(trifluoromethyl)imidazolidin-1-yl)methyl)pyridin-2-yl)amino)ethyl)-1H-pyrazole-5-carboxamide]",85
18,"CC(C)(OC[C@H](NC(=O)c1nonc1C1CC1)C(=O)Nc1cc(CN2C[C@@H](C(F)(F)F)NC2=O)ccn1)C(F)(F)F [Example 274, 4-cyclopropyl-N-((S)-1-oxo-1-((4-(((S)-2-oxo-4-(trifluoromethyl)imidazolidin-1-yl)methyl)pyridin-2-yl)amino)-3-((1,1,1-trifluoro-2-methylpropan-2-yl)oxy)propan-2-yl)-1,2,5-oxadiazole-3-carboxamide]",75
19,"COCC(c1ccnc(NC(=O)[C@@H](NC(=O)c2ccnn2C(C)C)[C@H]2CC[C@H](C)CC2)c1)N1C[C@@H](C(F)(F)F)NC1=O (single isomer, unassigned) [Example 78]",69
20,"COC[C@H](c1ccnc(NC(=O)[C@@H](NC(=O)c2ccnn2C(C)C)C(C2CC2)C2CC2)c1)N1C[C@@H](C(F)(F)F)NC1=O [Example 229, N-((S)-1,1-dicyclopropyl-3-((4-((S)-2-methoxy-1-((S)-2-oxo-4-(trifluoromethyl)imidazolidin-1-yl)ethyl)pyridin-2-yl)amino)-3-oxopropan-2-yl)-1-isopropyl-1H-pyrazole-5-carboxamide]",86
